Where two headings read alike, the source gives them in different places.
Tests used:
CK1d = target: T1, CK1d (Homo sapiens, UniProt P48730); test: Kinase activity test (ReactionBiology), % enzyme activity relative to DMSO; type: biochemical; settings: CK1d
T1 construct: purchased ReactionBiology

human CD19+ B cells = test: B-cell assay: IgG production of ODN2006-stimulated primary B cells (AlphaLISA); type: cell-based; settings: Homo sapiens, B-cell, 168 h; IgG production, ODN2006 0.1 μM, 7 days; mean of 4 independent experiments; read-out: B-cell IC50
MAP2K2 = target: T2, MAP2K2 (Homo sapiens, UniProt P36507); test: Kinase activity test (ReactionBiology), % enzyme activity relative to DMSO; type: biochemical; settings: MEK2
T2 construct: purchased ReactionBiology

[1] = system: human PBMCs (responder cells) with RPMI1788 stimulator cells; test: Mixed Lymphocyte Reaction (MLR, T cell assay), 3H-thymidine incorporation; type: cell-based; settings: Homo sapiens, RPMI-1788; mean of 4 independent measures; read-out: T-cell efficacy, MLR IC 50 (µM) Mean
DAPK1 = target: T3, DAPK1 (Homo sapiens, UniProt P53355); test: Kinase activity test (ReactionBiology), % enzyme activity relative to DMSO; type: biochemical; settings: DAPK1
T3 construct: purchased ReactionBiology

MST-4 = target: T4, MST-4 (Homo sapiens, UniProt Q9P289); test: as above; type: biochemical; settings: MST4;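 further: marketed FDA-approved drugs screened at 10 µM and 1 µM against a ten-kinase panel, remaining activity given as percent of DMSO controls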
T4 construct: purchased ReactionBiology

NEK2 = target: T5, NEK2 (Homo sapiens, UniProt P51955); test: as above; type: biochemical; settings: NEK2;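 further: FDA-approved drugs chosen by structure-based repositioning, each screened at 10 or 1 µM for kinase activity, expressed as percent of DMSO controls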
T5 construct: purchased ReactionBiology
T5 sequence (P51955 1-445): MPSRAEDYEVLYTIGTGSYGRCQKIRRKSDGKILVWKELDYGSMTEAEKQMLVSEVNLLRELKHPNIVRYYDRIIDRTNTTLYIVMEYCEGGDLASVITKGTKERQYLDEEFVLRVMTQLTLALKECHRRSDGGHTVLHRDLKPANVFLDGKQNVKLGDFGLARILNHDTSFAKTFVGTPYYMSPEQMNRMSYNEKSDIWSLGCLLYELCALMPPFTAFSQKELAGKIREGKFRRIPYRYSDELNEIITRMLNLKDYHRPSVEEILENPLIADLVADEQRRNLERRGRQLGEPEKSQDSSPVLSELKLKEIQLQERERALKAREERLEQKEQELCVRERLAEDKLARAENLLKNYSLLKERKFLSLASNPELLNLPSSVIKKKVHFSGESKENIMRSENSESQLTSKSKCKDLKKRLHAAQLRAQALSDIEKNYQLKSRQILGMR

[2] = WST-1 cytotoxicity assay on Jurkat cells (T-cell line); type: cell-based, human; settings: human, Jurkat cells (T-cell line), mean of 4 independent measures, read-out: Cytotoxicity, WST-1 Jurkat IC 50 (µM) Mean
Method: (§1) Compounds were prepared as 10 mM stock solutions in dimethylsulfoxide (DMSO)and were tested at 50-10-1-0.1-0.01 and 0.001 μM in the 4 assays.
(§2) The human B cell line RPMI1788 (American Type Culture Collection, USA) and the human T cell line Jurkat (European Collection of Cell Cultures, ECACC, England) were maintained in RPMI1640 culture medium (BioWhittaker®, Lonza, Verviers, Belgium) containing 10% foetal calf serum (FCS, HyClone® Thermo Scientific, United Kingdom) and 5 μg/mL gentamicin sulphate (BioWhittaker®, Lonza, Verviers, Belgium) at 37°C and 5% CO2.
(§3) WST-1 assays on RPMI-1788 cells and Jurkat cells were performed as follows: 20 μL of test compound dilution were added to each well containing exponential growing cells and the plates were incubated for 48 h at 37°C, 5% CO2. Untreated cells and positive control (1% triton X-100, for the last 15 min) served as reference for maximum and minimum viability. At the end of incubation 100 μL of supernatant were removed and replaced by 10 μL of WST-1 solution (Cell Proliferation Reagent WST-1, Roche Applied Science).

[3] = WST-1 cytotoxicity assay on RPMI1788 cells (B-cell line); type: cell-based, human; settings: human, RPMI1788 cells (B-cell line), mean of 4 independent measures, read-out: Cytotoxicity, WST-1 RPMI 1788 IC 50 (µM) Mean
Method: as §1, §2, §3

[4] = Average, read-out: % Enzyme Activity (relative to DMSO controls), Average
[5] = replicate Data 1, read-out: % Enzyme Activity (relative to DMSO controls), Data 1
[6] = replicate Data 2, read-out: % Enzyme Activity (relative to DMSO controls), Data 2

T2 sequence (P36507 whole entry): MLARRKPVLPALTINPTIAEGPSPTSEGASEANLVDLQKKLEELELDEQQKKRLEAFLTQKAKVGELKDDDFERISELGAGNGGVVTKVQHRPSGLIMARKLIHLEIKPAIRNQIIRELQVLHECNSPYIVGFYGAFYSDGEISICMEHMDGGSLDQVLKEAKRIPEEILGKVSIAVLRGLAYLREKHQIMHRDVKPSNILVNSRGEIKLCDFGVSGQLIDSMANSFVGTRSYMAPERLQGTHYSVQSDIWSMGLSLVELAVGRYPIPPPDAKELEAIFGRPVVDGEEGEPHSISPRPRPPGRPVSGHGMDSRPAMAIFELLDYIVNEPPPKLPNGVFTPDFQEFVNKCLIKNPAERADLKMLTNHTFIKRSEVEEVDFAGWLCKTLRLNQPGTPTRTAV
T4 sequence (Q9P289 whole entry): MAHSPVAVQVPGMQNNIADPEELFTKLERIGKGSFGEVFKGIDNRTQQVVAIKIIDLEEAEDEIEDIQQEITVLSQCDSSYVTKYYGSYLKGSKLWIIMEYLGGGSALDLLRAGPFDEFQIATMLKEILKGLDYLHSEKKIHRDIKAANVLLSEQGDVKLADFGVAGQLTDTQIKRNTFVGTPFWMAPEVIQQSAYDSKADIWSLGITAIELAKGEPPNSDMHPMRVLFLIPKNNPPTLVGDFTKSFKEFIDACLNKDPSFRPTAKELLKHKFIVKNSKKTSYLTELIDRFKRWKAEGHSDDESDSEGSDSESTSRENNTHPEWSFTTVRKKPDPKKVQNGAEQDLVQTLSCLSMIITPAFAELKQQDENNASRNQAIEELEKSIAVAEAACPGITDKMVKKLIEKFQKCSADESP
T1 sequence (P48730 whole entry): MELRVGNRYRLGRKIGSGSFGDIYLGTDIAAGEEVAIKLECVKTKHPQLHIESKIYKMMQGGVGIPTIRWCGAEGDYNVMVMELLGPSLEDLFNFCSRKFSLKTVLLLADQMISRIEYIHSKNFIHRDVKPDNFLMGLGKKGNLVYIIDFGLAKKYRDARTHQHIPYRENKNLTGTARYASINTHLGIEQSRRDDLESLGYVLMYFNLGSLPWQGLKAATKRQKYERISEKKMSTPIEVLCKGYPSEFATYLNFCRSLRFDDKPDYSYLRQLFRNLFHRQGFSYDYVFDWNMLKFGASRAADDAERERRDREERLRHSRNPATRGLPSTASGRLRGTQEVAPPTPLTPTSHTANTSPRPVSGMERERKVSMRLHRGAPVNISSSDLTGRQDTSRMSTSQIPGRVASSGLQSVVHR
T3 sequence (P53355 whole entry): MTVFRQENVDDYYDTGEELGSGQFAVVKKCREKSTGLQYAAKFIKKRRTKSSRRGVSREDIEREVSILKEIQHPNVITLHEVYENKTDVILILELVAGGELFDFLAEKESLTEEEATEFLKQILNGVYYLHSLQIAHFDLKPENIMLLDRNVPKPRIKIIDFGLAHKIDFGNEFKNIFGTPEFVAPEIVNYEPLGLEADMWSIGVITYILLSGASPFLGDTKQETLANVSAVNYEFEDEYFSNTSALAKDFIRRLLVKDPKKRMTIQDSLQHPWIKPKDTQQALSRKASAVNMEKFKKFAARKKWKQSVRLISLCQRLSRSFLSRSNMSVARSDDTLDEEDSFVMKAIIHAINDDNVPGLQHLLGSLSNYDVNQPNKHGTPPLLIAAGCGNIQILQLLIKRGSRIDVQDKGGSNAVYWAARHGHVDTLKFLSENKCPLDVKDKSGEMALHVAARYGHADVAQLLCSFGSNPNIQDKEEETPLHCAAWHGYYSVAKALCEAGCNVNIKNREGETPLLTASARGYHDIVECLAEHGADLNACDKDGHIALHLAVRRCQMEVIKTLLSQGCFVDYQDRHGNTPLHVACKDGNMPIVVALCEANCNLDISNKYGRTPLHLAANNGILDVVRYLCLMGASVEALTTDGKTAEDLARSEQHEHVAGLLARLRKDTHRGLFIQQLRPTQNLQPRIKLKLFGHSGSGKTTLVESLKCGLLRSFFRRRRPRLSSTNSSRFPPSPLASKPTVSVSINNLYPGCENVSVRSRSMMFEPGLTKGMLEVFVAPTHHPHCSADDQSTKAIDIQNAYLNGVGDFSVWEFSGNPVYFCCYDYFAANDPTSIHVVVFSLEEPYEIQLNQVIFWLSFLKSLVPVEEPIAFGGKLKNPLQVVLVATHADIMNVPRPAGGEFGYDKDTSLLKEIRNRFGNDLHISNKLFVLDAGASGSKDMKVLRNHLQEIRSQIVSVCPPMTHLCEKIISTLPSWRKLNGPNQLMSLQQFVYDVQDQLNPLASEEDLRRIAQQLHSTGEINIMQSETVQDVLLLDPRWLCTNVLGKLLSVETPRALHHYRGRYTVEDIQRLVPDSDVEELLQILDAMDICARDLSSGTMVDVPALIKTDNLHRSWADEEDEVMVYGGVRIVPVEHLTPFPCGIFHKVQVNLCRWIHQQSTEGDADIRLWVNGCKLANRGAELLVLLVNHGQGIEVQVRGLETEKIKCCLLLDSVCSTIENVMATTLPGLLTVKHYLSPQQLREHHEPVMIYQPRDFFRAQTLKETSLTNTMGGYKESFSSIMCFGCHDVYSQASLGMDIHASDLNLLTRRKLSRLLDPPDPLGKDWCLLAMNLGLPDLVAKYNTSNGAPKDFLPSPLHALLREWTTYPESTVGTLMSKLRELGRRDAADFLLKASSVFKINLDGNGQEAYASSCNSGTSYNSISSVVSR

Cc1nc(Nc2ncc(C(=O)Nc3c(C)cccc3Cl)s2)cc(N2CCN(CCO)CC2)n1 [Dasatinib, reference compound]
remaining activity at 1 µM (CK1d; [4]): 98.7%
remaining activity at 1 µM (CK1d; [5]): 95.4%
remaining activity at 1 µM (CK1d; [6]): 102%
remaining activity at 10 µM (CK1d; [4]): 92.7%
remaining activity at 10 µM (CK1d; [5]): 93.2%
remaining activity at 10 µM (CK1d; [6]): 92.2%
IC50 (human CD19+ B cells): 46 nM
remaining activity at 1 µM (MAP2K2; [4]): 45.1%
remaining activity at 1 µM (MAP2K2; [5]): 44.8%
remaining activity at 1 µM (MAP2K2; [6]): 45.5%
remaining activity at 10 µM (MAP2K2; [4]): 7.91%
remaining activity at 10 µM (MAP2K2; [5]): 8.25%
remaining activity at 10 µM (MAP2K2; [6]): 7.56%
IC50 [1]: 0.0032 µM
remaining activity at 1 µM (DAPK1; [4]): 92%
remaining activity at 1 µM (DAPK1; [5]): 91.8%
remaining activity at 1 µM (DAPK1; [6]): 92.1%
remaining activity at 10 µM (DAPK1; [4]): 51.4%
remaining activity at 10 µM (DAPK1; [5]): 49.9%
remaining activity at 10 µM (DAPK1; [6]): 52.8%
remaining activity at 1 µM (MST-4; [4]): 40.2%
remaining activity at 1 µM (MST-4; [5]): 46.5%
remaining activity at 1 µM (MST-4; [6]): 33.9%
remaining activity at 10 µM (MST-4; [4]): 12%
remaining activity at 10 µM (MST-4; [5]): 9.39%
remaining activity at 10 µM (MST-4; [6]): 14.6%
remaining activity at 1 µM (NEK2; [4]): 81.6%
remaining activity at 1 µM (NEK2; [5]): 81.9%
remaining activity at 1 µM (NEK2; [6]): 81.2%
remaining activity at 10 µM (NEK2; [4]): 19%
remaining activity at 10 µM (NEK2; [5]): 20%
remaining activity at 10 µM (NEK2; [6]): 18%
IC50 at 48 h [2]: 7.3 µM
IC50 at 48 h [3]: 0.0324 µM
